Structures can show the parent of a compound that is named as a salt.
| melting point | SMILES |
| --- | --- |
| > 250 °C | Cc1nccn1Cc1cn(-c2ccc([N+](=O)[O-])cc2)cn1.Cl.Cl |
| 196 to 197 °C | CCc1nccn1Cc1cn(-c2ccc([N+](=O)[O-])cc2)cn1.Cl.Cl |
| 245 to 246 °C | Cl.Cl.O=[N+]([O-])c1ccc(-n2cnc(Cn3ccnc3)c2)cc1 |
| > 250 °C | Cc1cnc(C)n1Cc1cn(-c2ccc(Cl)c(Cl)c2)cn1.Cl.Cl |
| 204 to 205 °C | Cc1nccn1Cc1ccn(-c2ccc(Cl)c(Cl)c2)n1.Cl |
| 202 to 204 °C (dec.) | CSc1nccn1Cc1cn(-c2ccc(Cl)c(C)c2)cn1.Cl.Cl |
| > 200 °C (dec.) | CSc1cccc(-n2cnc(Cn3ccnc3C)c2)c1.Cl.Cl |
| 237 to 239 °C | CCc1nccn1Cc1cn(-c2cccc(OC(F)(F)F)c2)cn1.Cl.Cl |
| 233 to 234 °C | Cl.Cl.FC(F)(F)Oc1cccc(-n2cnc(Cn3ccnc3)c2)c1 |
| > 200 °C (dec.) | Cl.Cl.Clc1cccc(-n2cnc(Cn3ccnc3)c2)c1 |
| 233 to 234 °C | Cl.Cl.Fc1cc(-n2cnc(Cn3ccnc3)c2)cc(C(F)(F)F)c1 |
| 214 to 216 °C | Cl.Cl.c1cn(Cc2cn(-c3ccc4c(c3)CCC4)cn2)cn1 |
| 244 to 246 °C | COc1cc(-n2cnc(Cn3ccnc3)c2)cc(C(F)(F)F)c1.Cl.Cl |
| 205 °C (dec.) | CCc1nccn1Cc1cn(-c2cccc(C(C)(C)C)c2)cn1.Cl.Cl |
| > 200 °C (dec.) | CC(C)(C)c1cccc(-n2cnc(Cn3ccnc3)c2)c1.Cl.Cl |
| > 250 °C | CCc1nccn1Cc1cn(-c2ccc(OC(F)(F)F)c(Cl)c2)cn1.Cl.Cl |
| 212 to 213 °C | Cl.Cl.FC(F)(F)Oc1ccc(-n2cnc(Cn3ccnc3)c2)cc1Cl |
| > 250 °C | CCc1nccn1Cc1cn(-c2ccc(C)c(C)c2)cn1.Cl.Cl |
| 220 to 222 °C | Cc1nccn1Cc1cn(-c2cccc(OC(F)F)c2)cn1.Cl.Cl |
| 205 to 206 °C | Cl.Cl.FC(F)Oc1cccc(-n2cnc(Cn3ccnc3)c2)c1 |
| 219 to 220 °C | CCc1nccn1Cc1cn(-c2cccc(C(F)F)c2)cn1.Cl.Cl |
| 216 to 217 °C | Cl.Cl.FC(F)c1cccc(-n2cnc(Cn3ccnc3)c2)c1 |
| > 250 °C | CNc1nccn1Cc1cn(-c2ccc(Cl)c(Cl)c2)cn1.Cl |
| > 180 °C (dec.) | CNc1nccn1Cc1ncn(-c2ccc(Cl)c(Cl)c2)c1CO.Cl |
| > 200 °C (dec.) | Cc1nccn1Cc1cn(-c2cc(F)cc(Br)c2)cn1.Cl.Cl |

| melting point | SMILES |
| --- | --- |
| 249 to 251 °C | Cc1ccc(-n2cnc(Cn3ccnc3C)c2)cc1C.Cl.Cl |
| > 200 °C (dec.) | Cl.Cl.Fc1cc(Br)cc(-n2cnc(Cn3ccnc3)c2)c1 |
| 237 to 239 °C (dec.) | CCc1nccn1Cc1cn(-c2ccc3c(c2)OC(F)(F)O3)cn1.Cl.Cl |
| > 250 °C | Cc1nccn1Cc1cn(-c2ccc3c(c2)OC(F)(F)O3)cn1.Cl.Cl |
| 214 to 215 °C | CCc1nccn1Cc1cn(-c2ccc(SC(F)(F)F)c(Cl)c2)cn1.Cl.Cl |
| 195 to 198 °C | Cc1nccn1Cc1cn(-c2ccc(SC(F)(F)F)c(Cl)c2)cn1.Cl.Cl |
| 244 to 245 °C | Cl.Cl.FC(F)(F)Sc1ccc(-n2cnc(Cn3ccnc3)c2)cc1Cl |
| > 250 °C | Cc1nccn1Cc1cn(-c2cc3ccccc3cn2)cn1.Cl.Cl |
| 216 to 218 °C | CCc1nccn1Cc1cn(-c2ccc(OC(F)(F)F)cc2)cn1.Cl.Cl |
| 183 to 185 °C | CCc1nccn1Cc1cn(-c2ccc(SC(F)(F)F)cc2)cn1.Cl.Cl |
| 249 to 250 °C | Cc1nccn1Cc1cn(-c2ccc(SC(F)(F)F)cc2)cn1.Cl.Cl |
| > 250 °C | Cc1ccc(-n2cnc(Cn3ccnc3C)c2)cc1.Cl.Cl |
| 228 to 229 °C | Cc1ccc(-n2cnc(Cn3ccnc3)c2)cc1.Cl.Cl |
| 210 to 212 °C | CCc1nccn1Cc1cn(-c2ccc(F)c(C)c2)cn1.Cl.Cl |
| 242 to 243 °C | Cc1cc(-n2cnc(Cn3ccnc3)c2)ccc1F.Cl.Cl |
| 161 to 162 °C | CCc1nccn1Cc1cn(-c2ccc(SC)cc2)cn1.Cl.Cl |
| 233 to 234 °C | CSc1ccc(-n2cnc(Cn3ccnc3)c2)cc1.Cl.Cl |
| 218 to 220 °C | Cc1nccn1Cc1cn(-c2cccc(C(F)(F)F)c2)cn1.Cl.Cl |
| 216 to 218 °C | CCc1nccn1Cc1cn(-c2cccc(C(F)(F)F)c2)cn1.Cl.Cl |
| > 238 °C (dec.) | CCc1nccn1Cc1cn(-c2ccc(F)c(C(F)(F)F)c2)cn1.Cl.Cl |
| > 246 °C (dec.) | Cl.Cl.Fc1ccc(-n2cnc(Cn3ccnc3)c2)cc1C(F)(F)F |
| > 250 °C | CCc1nccn1Cc1cn(-c2ccc(C)c(C(F)(F)F)c2)cn1.Cl.Cl |
| > 250 °C | Cc1ccc(-n2cnc(Cn3ccnc3)c2)cc1C(F)(F)F.Cl.Cl |
| 244 to 246 °C (dec.) | CCc1nccn1Cc1cn(-c2ccc(Cl)c(OC)c2)cn1.Cl.Cl |
| > 250 °C | COc1cc(-n2cnc(Cn3ccnc3C)c2)ccc1Cl.Cl.Cl |

| melting point | SMILES |
| --- | --- |
| 221 to 222 °C | COc1cc(-n2cnc(Cn3ccnc3)c2)ccc1Cl.Cl.Cl |
| > 220 °C (dec.) | COc1cc(-n2cnc(Cn3ccnc3C)c2)ccc1F.Cl.Cl |
| 174 to 178 °C | COc1cc(-n2cnc(Cn3ccnc3)c2)ccc1F.Cl.Cl |
| 200 to 201 °C | CCc1nccn1Cc1cn(-c2ccc(Cl)cc2)cn1.Cl.Cl |
| > 250 °C | Cl.Cl.Clc1ccc(-n2cnc(Cn3ccnc3)c2)cc1Cl |
| 228 to 229 °C | Cl.Cl.Clc1ccc(-n2cnc(Cn3ccnc3)c2)cc1 |
| > 250 °C | CCc1nccn1Cc1cn(-c2ccc3c(c2)OCO3)cn1.Cl.Cl |
| 197 to 198 °C | Cl.Cl.c1cn(Cc2cn(-c3ccc4c(c3)OCO4)cn2)cn1 |
| > 250 °C | Cc1ccc(-n2cnc(Cn3ccnc3C)c2)cc1F.Cl.Cl |
| > 250 °C | CCc1nccn1Cc1cn(-c2ccc(C)c(F)c2)cn1.Cl.Cl |
| 223 to 224 °C | Cc1ccc(-n2cnc(Cn3ccnc3)c2)cc1F.Cl.Cl |
| 240 to 241 °C | COc1ccc(-n2cnc(Cn3ccnc3C)c2)cc1Cl.Cl.Cl |
| 245 to 246 °C | COc1ccc(-n2cnc(Cn3ccnc3)c2)cc1Cl.Cl.Cl |
| 235 to 236 °C | Cc1nccn1Cc1cn(-c2ccc(Cl)cc2F)cn1.Cl.Cl |
| 248 to 249 °C | CCc1nccn1Cc1cn(-c2ccc(Cl)cc2F)cn1.Cl.Cl |
| > 212 °C (dec.) | Cl.Cl.Fc1cc(Cl)ccc1-n1cnc(Cn2ccnc2)c1 |
| > 250 °C | CCc1nccn1Cc1cn(-c2ccc(Br)cc2)cn1.Cl.Cl |
| 237 to 239 °C | Brc1ccc(-n2cnc(Cn3ccnc3)c2)cc1.Cl.Cl |
| 199 to 200 °C | CCc1nccn1Cc1cn(-c2ccc(OC(F)F)cc2)cn1.Cl.Cl |
| 228 to 229 °C | Cc1nccn1Cc1cn(-c2ccc(OC(F)F)cc2)cn1.Cl.Cl |
| 222 to 223 °C | CCc1nccn1Cc1cn(-c2ccc(OCc3ccccc3)cc2)cn1.Cl.Cl |
| 224 to 225 °C | Cl.Cl.c1ccc(COc2ccc(-n3cnc(Cn4ccnc4)c3)cc2)cc1 |
| > 250 °C | CCc1nccn1Cc1cn(-c2ccc(C)c(OC)c2)cn1.Cl.Cl |
| 249 to 251 °C | COc1cc(-n2cnc(Cn3ccnc3)c2)ccc1C.Cl.Cl |
| 240 to 242 °C | CCc1nccn1Cc1cn(-c2ccc(C(F)(F)F)cc2)cn1.Cl.Cl |

| melting point | SMILES |
| --- | --- |
| 246 to 248 °C | Cc1nccn1Cc1cn(-c2ccc(C(F)(F)F)cc2)cn1.Cl.Cl |
| 220 to 222 °C | Cl.Cl.FC(F)(F)c1ccc(-n2cnc(Cn3ccnc3)c2)cc1 |
| > 108 °C (dec.) | CCc1nccn1Cc1cn(-c2ccc3c(c2)COC3)cn1.Cl.Cl |
| > 250 °C | Cc1nccn1Cc1cn(-c2ccc3c(c2)COC3)cn1.Cl.Cl |
| 238 to 240 °C | COc1ccc(-n2cnc(Cn3ccnc3C)c2)cc1F.Cl.Cl |
| > 250 °C | Cc1ncn(Cc2cn(-c3ccc(Cl)c(Cl)c3)cn2)c1C.Cl.Cl |
| 218 to 220 °C | CCc1nccn1Cc1cn(-c2ccc(OC)c(F)c2)cn1.Cl.Cl |
| > 250 °C | COc1ccc(-n2cnc(Cn3ccnc3C)c2)cc1.Cl.Cl |
| 246 to 248 °C | CCc1nccn1Cc1cn(-c2cccc(OC)c2)cn1.Cl.Cl |
| 242 to 243 °C | COc1cccc(-n2cnc(Cn3ccnc3C)c2)c1.Cl.Cl |
| 219 to 220 °C | COc1cccc(-n2cnc(Cn3ccnc3)c2)c1.Cl.Cl |
| > 222 °C (dec.) | COc1ccc(-n2cnc(Cn3ccnc3C)c2)cc1C(F)(F)F.Cl.Cl |
| > 226 °C (dec.) | CCc1nccn1Cc1cn(-c2ccc(OC)c(C(F)(F)F)c2)cn1.Cl.Cl |
| 178 to 179 °C | CCc1nccn1Cc1cn(-c2ccc(C)c(Cl)c2)cn1.Cl.Cl |
| 197 to 198 °C | Cl.Cl.Clc1ccc(-n2cnc(Cn3ccnc3-c3ccccc3)c2)cc1Cl |
| 179 to 180 °C | CCc1nccn1Cc1cn(-c2ccc(Cl)c(C(F)(F)F)c2)cn1.Cl.Cl |
| > 250 °C | Cc1nccn1Cc1cn(-c2ccc(Cl)c(C(F)(F)F)c2)cn1.Cl.Cl |
| > 250 °C | Cl.Cl.FC(F)(F)c1cc(-n2cnc(Cn3ccnc3)c2)ccc1Cl |
| 210 to 212 °C | Cl.Cl.Fc1ccc(-n2cnc(Cn3ccnc3)c2)cc1Cl |
| 248 to 253 °C | CCc1nccn1Cc1cn(-c2ccc(-c3ccccc3)cc2)cn1.Cl.Cl |
| 169 to 175 °C | Cc1nccn1Cc1cn(-c2ccc(-c3ccccc3)cc2)cn1.Cl.Cl |
| > 180 °C (dec.) | CCc1nccn1Cc1cn(-c2ccc(C(C)C)c(C)c2)cn1.Cl.Cl |
| 218 to 219 °C | Cc1ccc(-n2cnc(Cn3ccnc3)c2)cc1C (as salt: hydrochloride) [Example 21] |
| 242 to 243 °C | CSc1ccc(-n2cnc(Cn3ccnc3C)c2)cc1 (as salt: hydrochloride) [Example 27] |

From patent publication US6667335B2, “Imidazole derivatives” (Hoffmann-La Roche Inc., priority 2001, dated 2003)
